Here are results for one compound from ChEMBL document CHEMBL2150979, “Xentrivalpeptides A-Q: depsipeptide diversification in Xenorhabdus” (J Nat Prod, 2012).

Active and inactive are the calls of the source. The calls are words filed in the database; no cut-off is given here.

One data set relates to Escherichia coli. Description: Antibacterial activity against Escherichia coli. It is filed as functional, organism-based.
In another data set the test system is Pseudomonas aeruginosa. As to the kind of experiment: Antibacterial activity against Pseudomonas aeruginosa. The data set is classed as functional, organism-based.
In another data set the test system is Enterococcus faecalis. Description: Antibacterial activity against Enterococcus faecalis. It is filed as functional, organism-based.
For another data set, the system named is Staphylococcus aureus. As to the kind of experiment: Antibacterial activity against Staphylococcus aureus. The data set is classed as functional, organism-based.
Data set [1] has as its system Staphylococcus epidermidis. As to the kind of experiment: Antibacterial activity against Staphylococcus epidermidis. It is filed as functional, organism-based.
A further data set concerns Micrococcus luteus. Description: Antibacterial activity against Micrococcus luteus. It is filed as functional, organism-based.
In a further data set the test system is Bacillus subtilis. As to the kind of experiment: Antibacterial activity against Bacillus subtilis. It is filed as functional, organism-based.
In a further data set the test system is Saccharomyces cerevisiae. Description: Antifungal activity against Saccharomyces cerevisiae. The data set is classed as functional, organism-based.
A further data set has as its system L929. As to the kind of experiment: Cytotoxicity against mouse L929 cells after 5 days by MTT assay. As to conditions: l929, 120 h. The data set is classed as cell-based. (In general: Tetrazolium dyes change colour on reduction, which living cells bring about.)
The next data set concerns HL-60. As to the kind of experiment: Cytotoxicity against human HL60 cells after 5 days by MTT assay. The data set is classed as functional, cell-based.
A further data set deals with Galleria mellonella. Description: Hemocyte cytotoxicity against Galleria mellonella larvae assessed as actin cytoskeletal ruffling at 100 ug/mL after 4 hrs. It is filed as organism-based. As to conditions: in vivo.

For the compound `CC(C)[C@H](NC(=O)Cc1ccccc1)C(=O)N[C@@H]1C(=O)N[C@H](Cc2ccccc2)C(=O)N2CCC[C@H]2C(=O)N[C@@H](C(C)C)C(=O)N[C@@H](C(C)C)C(=O)N[C@@H](C(C)C)C(=O)O[C@@H]1C` [XENTRIVALPEPTIDE A], the outcome (with Escherichia coli; in the data set on Pseudomonas aeruginosa; in the data set with Enterococcus faecalis; with Staphylococcus aureus; in data set [1]; in the data set with Micrococcus luteus) was inactive. Besides, the result in the data set on Bacillus subtilis, with Saccharomyces cerevisiae and in the data set on HL-60 was inactive. Further, the Activity entry is on record as “Non-toxic” in the data set on L929 and “Toxic” in the data set on Galleria mellonella.
